Consider four compounds from PMC12526278, “Origanum vulgare subsp. virens (Hoffmanns. & Link) Bonnier & Layens Essential Oils: Chemotypes and Bioactivity as Antifungal, Antifeeding and Enzyme Inhibitors” (Plants, 2025).

In test [1] the target is T1, β-glucosidase (β-GLU) from almonds.
T1 construct: gene beta-glucosidase; commercial enzyme from almonds (Sigma-Aldrich)
The experiment in a line: 4-nitrophenol release, absorbance […] nm. In kind it is biochemical, Prunus dulcis. To be noted: 4-nitrophenyl beta-D-glucopyranoside, 0.1 M phosphate pH 7.0, 37 °C, 20 min.

For test [2], the target named is T2, AChE from Electrophorus electricus (Electrophorus electricus, UniProt O42275). The experiment in a line: biochemical.
T2 sequence (O42275 24-633): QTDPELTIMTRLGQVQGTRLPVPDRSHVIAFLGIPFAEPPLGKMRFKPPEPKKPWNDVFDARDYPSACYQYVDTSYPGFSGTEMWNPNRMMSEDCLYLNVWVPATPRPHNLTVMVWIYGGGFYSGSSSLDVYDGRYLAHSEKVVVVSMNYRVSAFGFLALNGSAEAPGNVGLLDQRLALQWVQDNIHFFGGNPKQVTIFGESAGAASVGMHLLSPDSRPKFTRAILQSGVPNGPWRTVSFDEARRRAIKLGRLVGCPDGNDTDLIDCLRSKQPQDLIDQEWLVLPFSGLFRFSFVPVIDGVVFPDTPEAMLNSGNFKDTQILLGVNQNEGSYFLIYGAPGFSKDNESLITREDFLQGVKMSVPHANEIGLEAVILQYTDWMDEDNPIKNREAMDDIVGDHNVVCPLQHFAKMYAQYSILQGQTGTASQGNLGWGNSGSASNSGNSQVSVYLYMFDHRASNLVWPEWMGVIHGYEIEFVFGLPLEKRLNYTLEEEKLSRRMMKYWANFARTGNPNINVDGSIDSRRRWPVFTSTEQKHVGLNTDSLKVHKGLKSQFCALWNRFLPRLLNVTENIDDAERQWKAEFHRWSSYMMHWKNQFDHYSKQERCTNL
The subject of test [3] is T3, α-glucosidase (α-GLU) extracted from Saccharomyces cerevisiae.
T3 construct: gene MAL12; commercial yeast enzyme (Sigma-Aldrich)
The experiment in a line: 4-nitrophenol release, absorbance […] nm. The settings on record: 4-nitrophenyl alpha-D-glucopyranoside (5 mM solution), 0.1 M phosphate pH 7.0, 37 °C, 20 min; unreliable (far above the tested range, extrapolated). It counts as biochemical.

Test [4] addresses T3, α-glucosidase (α-GLU) extracted from Saccharomyces cerevisiae. The experiment in a line: 4-nitrophenol release, absorbance […] nm. It counts as biochemical. To be noted: 4-nitrophenyl alpha-D-glucopyranoside (5 mM solution), 0.1 M phosphate pH 7.0, 37 °C, 20 min.
The target of test [5] is T2, AChE from Electrophorus electricus. Description: Ellman assay, absorbance […] nm. It counts as biochemical. To be noted: acetylthiocholine iodide substrate with DTNB, phosphate buffer, 5 min preincubation; unreliable (above the tested range, extrapolated).
Test [6] shares this target. The experiment in a line: Ellman assay, absorbance […] nm. It counts as biochemical. To be noted: acetylthiocholine iodide substrate with DTNB, phosphate buffer; no significant inhibition. On the technique in general: In Ellman's method for cholinesterases, released thiocholine reacts with DTNB.

SMILES strings stand for the structures. In brackets after ≈: the same amount, converted by molar mass.

In general, IC50 refers to the point on the concentration scale where inhibition reaches its midpoint.

For the compound `OC[C@H]1NC[C@H](O)[C@@H](O)[C@@H]1O` [1-DNJ], in test [1], the “β-GLU / IC50” value is 36 ± 1 µg/mL.

With `Cc1ccc(C(C)C)cc1O` [Carvacrol], inhibition in test [2] was half-maximal at 180 µM (IC50). Also, the “α-GLU / IC50” value in test [3] is 109340 ± 23120 µg/mL.

With `Cc1ccc(C(C)C)c(O)c1` [Thymol], the “α-GLU / IC50” value in test [4] came to 304 ± 25 µg/mL. Besides, the “IC50” value in test [5] was 2531 ± 515 µg/mL (≈ 16.8 mM).

On to `CC1=CCC(C(C)C)=CC1` [γ-terpinene], for which, in test [6], the “Ellman assay, absorbance 405 nm” value is “did not show significant AChE inhibition under our experimental conditions”.
